Results: patent US20260083751A1, “ALLOSTERIC MODULATORS OF ANDROGEN RECEPTOR COACTIVATOR RECRUITMENT FOR CRPC THERAPY” (University of Pittsburgh – Of the Commonwealth System of …, priority 2022, published 2026)
“Also recorded” adds a separate entry of the source.

How the values were obtained:
Format in all cases: cell-based
LNCaP cells = assay: Prostate cancer cell line growth inhibition assay, LNCaP; settings: Homo sapiens, 72 h, read-out: AR positive LnCaP GI50
Description: (§1) Prostate Cancer Cell Line Growth Inhibition Assays: The PC-3, DU-145, LNCaP, C4-2, and 22Rv1 PC cell line growth inhibition assays have been described previously (Fancher et al., Assay Drug Dev Technol. 2016, 14:453-477; Fancher et al., Assay Drug Dev Technol. 2019, 17:364-386). On day 1, each PC cell line was harvested, counted, and seeded into two 384-well assay plates, a time zero (T0) and a time 72 h (T72) plate. PC cell lines were all seeded at 1,000 cells per well in 45 μL of tissue culture media in uncoated white clear bottom 384-well assay plates (VWR, #82050-076) using a Matrix electronic multichannel pipette (Thermo Fisher Scientific, Waltham, MA) and cultured overnight at 37° C., 5% CO2, and 95% humidity. On day 2, 25 μL of the CellTiter-Glo® (CTG) (Promega Corporation, Madison, WI) detection reagent was dispensed into the wells of the TO assay plate using a Matrix electronic multichannel pipette, and the RLUs were captured on the SpectraMax® M5e (Molecular Devices LLC, Sunnyvale, CA) microtiter plate reader. Also on day 2, 5 μL of compounds were transferred into the test wells of the T72 384-well assay plates which were returned to the incubator for 72 h. Control wells received DMSO alone. On day 5, 25 μL of the CTG detection reagent was dispensed into the wells of the T72 assay plate using a Matrix electronic multichannel pipette, and the RLU's were captured on the SpectraMax® M5e microtiter plate reader platform.
(§2) For the 96-well AR-LBD H^3-DHT radioligand binding assay, eight minimum and maximum plate control wells were utilized to normalize the data. […] To normalize the 72 h compound exposure PC growth inhibition data, the signals from the compound treated wells were processed and expressed as % of the T72 DMSO plate controls. IC50 and GI50 values for each of the bioassays were calculated using GraphPad Prism 9 software to plot and fit data to curves using the Sigmoidal dose response variable slope equation Y=Bottom+[Top-Bottom]/[1+10^(Log EC50−X)*HillSlope].

22Rv1 cells = assay: Prostate cancer cell line growth inhibition assay, 22Rv1; settings: Homo sapiens, 22Rv1, 72 h; read-out: AR positive 22Rv1 GI50
Description: as §1, §2

[1] = test system: PSA secretion in C4-2 conditioned media; assay: Dot blot of PSA secretion by C4-2 cells; settings: C4-2 cells, 20 μM 3 h, ±10 nM DHT 24 h
Description: To determine PSA secretion levels, C4-2 cells were seeded at 1.4×10^5 cells/well in 12-well plates and treated as described above for PSA cell expression experiments. […] 500 μL of conditioned media supernatant was added to the wells of 96-well to Bio-blot apparatus (BioRad, Hercules, CA) containing a nitrocellulose membrane and was allowed to pass through and attach to the membrane under gravity for 3-4 h at room temperature. The membrane was washed 1× with 500 μL TBS under vacuum, blocked with 1% BSA in TBST for 1 h, and then incubated overnight at 4° C. with the primary rabbit anti-hPSA antibody (Cell Signaling, Danvers, MA) diluted 1:1000 in TBST plus 1% BSA. Dot blots were washed 3× in 10 mL of TBST for 10 min, then incubated for 1 h with secondary goat anti-rabbit-IgG HRP conjugated antibody (Invitrogen, Carlsbad, CA) diluted 1:10,000 in TBST plus 1% Bovine Serum Albumin (BSA), washed 3× with […] of TBST for 10 min, and then developed with Pierce ECL western blotting substrate. Images of ECL dot blots were acquired on an iBright™ 1500 imaging system and quantified by iBright™ image analysis software (ThermoFisher Scientific, Waltham, MA).

Row | GI50 (LNCaP cells) [µM] | GI50 (22Rv1 cells) [µM] | SMILES | Endogenous and DHT-enhanced PSA secretion [1]
1 | 24.4 | 42.5 | Cc1ccccc1-c1cc(O)c2c(c1)CN(c1nc(C(N)=O)cs1)CCO2 [Compound S1-1] | substantially reduced; also recorded: inhibition
2 | 15.6 | 17.9 | Cc1nsc(NC(=O)N2CCC(Sc3ccccc3C)CC2)n1 [Compound S2-6] | substantially reduced; also recorded: inhibition
3 | 6.35 | 13.2 | Cc1c(-c2ccccc2F)[nH]c2ccc(CNC(=O)CCc3cn[nH]c3)cc12 [Compound S3-11] | substantially reduced; also recorded: inhibition
